Here are results for 22 compounds from ChEMBL document CHEMBL1142738, “N-substituted piperidinyl alkyl imidazoles: discovery of methimepip as a potent and selective histamine H3 receptor agonist” (J Med Chem, 2005).

Experiment [1] concerns the target T1, Histamine H3 receptor (Homo sapiens, UniProt Q9Y5N1). Put plainly: Inhibition of cAMP-stimulated beta-galactosidase transcription in SK-N-MC cells expressing human H3 receptor. In kind it is functional, cell-based.
The target of experiment [2] is T1, Histamine H3 receptor. Put plainly: Displacement of [3H]N-R-methylhistamine binding to SK-N-MC cell membranes expressing human H3 receptor.
For experiment [3], the target named is Histamine H2 receptor (Homo sapiens, UniProt P25021). Put plainly: Displacement of [125I]aminopotentidine binding to CHO cell membranes expressing human histamine H2 receptor. Background: Loss of bound radioactivity is the signal in a displacement assay; it reports binding, not function.
Experiment [4] deals with Histamine H3 receptor (Cavia porcellus). Briefly: Effect on guinea pig ileal muscle contraction evoked by electrical field stimulation (EFS).
Experiment [5] has as its target Histamine H4 receptor (Homo sapiens, UniProt Q9H3N8). Put plainly: Displacement of [3H]histamine binding to SK-N-MC cell membranes expressing human histamine H4 receptor.
The target of experiment [6] is Histamine H1 receptor (Homo sapiens, UniProt P35367). Briefly: Displacement of [3H]mepyramine binding to COS-7 cell membranes expressing human histamine H1 receptor.

Where only a bound is given, the exact number is not on record here.

T1 sequence (Q9Y5N1 whole entry): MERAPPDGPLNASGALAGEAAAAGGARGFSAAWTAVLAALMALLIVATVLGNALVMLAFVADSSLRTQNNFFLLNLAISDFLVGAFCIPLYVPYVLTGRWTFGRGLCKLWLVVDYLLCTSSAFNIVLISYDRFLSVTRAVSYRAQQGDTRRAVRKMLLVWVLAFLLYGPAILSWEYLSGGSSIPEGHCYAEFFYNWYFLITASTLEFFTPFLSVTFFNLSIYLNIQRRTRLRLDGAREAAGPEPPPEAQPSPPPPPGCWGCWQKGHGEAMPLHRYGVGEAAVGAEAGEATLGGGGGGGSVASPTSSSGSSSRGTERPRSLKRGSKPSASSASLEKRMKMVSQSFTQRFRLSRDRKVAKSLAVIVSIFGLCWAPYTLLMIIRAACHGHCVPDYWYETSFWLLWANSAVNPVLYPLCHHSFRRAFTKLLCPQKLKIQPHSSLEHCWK
Histamine H2 receptor, sequence (P25021 whole entry): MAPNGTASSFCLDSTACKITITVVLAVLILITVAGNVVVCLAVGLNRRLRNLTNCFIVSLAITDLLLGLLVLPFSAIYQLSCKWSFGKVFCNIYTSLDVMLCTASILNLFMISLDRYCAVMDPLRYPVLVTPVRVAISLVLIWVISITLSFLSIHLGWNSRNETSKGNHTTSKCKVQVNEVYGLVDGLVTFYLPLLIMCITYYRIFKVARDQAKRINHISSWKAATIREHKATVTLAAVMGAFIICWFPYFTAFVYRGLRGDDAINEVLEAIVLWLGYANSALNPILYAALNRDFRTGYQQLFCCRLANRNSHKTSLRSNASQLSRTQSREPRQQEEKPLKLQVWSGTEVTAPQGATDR
Histamine H4 receptor, sequence (Q9H3N8 whole entry): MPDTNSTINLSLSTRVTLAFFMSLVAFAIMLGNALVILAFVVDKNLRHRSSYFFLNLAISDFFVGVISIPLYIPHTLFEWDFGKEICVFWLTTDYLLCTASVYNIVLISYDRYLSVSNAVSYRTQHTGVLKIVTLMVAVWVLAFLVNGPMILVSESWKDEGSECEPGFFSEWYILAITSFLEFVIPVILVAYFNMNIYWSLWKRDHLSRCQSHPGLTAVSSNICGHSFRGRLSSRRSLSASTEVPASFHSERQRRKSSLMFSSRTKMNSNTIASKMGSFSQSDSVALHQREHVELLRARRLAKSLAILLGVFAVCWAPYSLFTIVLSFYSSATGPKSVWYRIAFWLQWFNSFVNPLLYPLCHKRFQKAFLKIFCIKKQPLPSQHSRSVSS
Histamine H1 receptor, sequence (P35367 whole entry): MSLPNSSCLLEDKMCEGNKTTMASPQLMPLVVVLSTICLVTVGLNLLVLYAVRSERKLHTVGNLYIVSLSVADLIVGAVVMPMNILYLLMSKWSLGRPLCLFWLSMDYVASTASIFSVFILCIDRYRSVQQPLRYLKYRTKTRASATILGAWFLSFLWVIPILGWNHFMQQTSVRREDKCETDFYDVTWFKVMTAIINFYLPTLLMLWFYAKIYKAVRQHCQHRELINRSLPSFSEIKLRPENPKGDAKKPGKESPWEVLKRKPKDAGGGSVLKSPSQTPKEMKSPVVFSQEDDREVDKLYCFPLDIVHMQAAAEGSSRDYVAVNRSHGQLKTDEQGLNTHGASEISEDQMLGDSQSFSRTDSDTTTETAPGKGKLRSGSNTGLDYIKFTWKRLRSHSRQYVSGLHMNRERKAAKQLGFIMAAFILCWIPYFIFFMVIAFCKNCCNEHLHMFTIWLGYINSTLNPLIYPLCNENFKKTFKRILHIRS

As a reminder, the EC50 is the midpoint of the concentration-response curve. Read a low EC50 as higher potency in that assay. As usually defined, the Ki is the dissociation constant of the complex between target and ligand, obtained from inhibition or displacement. Low readings indicate a stronger hold on the target, high ones a looser hold on the target. Compound `CCN1CCC(CCc2c[nH]cn2)CC1` gave an EC50 in experiment [1] greater than 10000 nM. Also, the affinity in experiment [2] corresponds to a Ki of 63.1 nM.

In the case of `CN1CCC(=Cc2c[nH]cn2)CC1`, the EC50 in experiment [1] is 2.51 nM. In addition, in experiment [2], the Ki was 5.01 nM.

Turning to `c1nc(CCC2CCN(C3CCCCC3)CC2)c[nH]1`, in experiment [1], it took 316 nM to reach a half-maximal effect (EC50). In experiment [2], this compound showed a Ki of 158 nM.

For the compound `CN1CCC(CCc2c[nH]cn2)CC1`, in experiment [1], a half-maximal response (EC50) required 50.1 nM. In experiment [2], this compound gave a Ki of 50.1 nM.

On to `CC(C)N1CCC(=Cc2c[nH]cn2)CC1`, for which, in experiment [1], the EC50 is 63.1 nM. The Ki in experiment [2] was 63.1 nM.

Regarding `C(=C1CCNCC1)c1c[nH]cn1`, affinity in experiment [2] was put at a Ki of 6.31 nM.

For the compound `CCN1CCC(Cc2c[nH]cn2)CC1`, in experiment [1], the EC50 was 3.98 nM. In experiment [2], this compound showed a Ki of 15.8 nM.

For the compound `c1ccc(CCCN2CCC(Cc3c[nH]cn3)CC2)cc1`, the midpoint of the response in experiment [1], the EC50, lay at 31.6 nM. In experiment [2], this compound showed a Ki of 39.8 nM.

In experiment [1], `c1nc(CCC2CCNCC2)c[nH]1` had an EC50 of 12.6 nM.

Turning to `c1ccc(CCN2CCC(CCc3c[nH]cn3)CC2)cc1`, the EC50 in experiment [1] is greater than 10000 nM. The compound further gave a Ki in experiment [2] of 39.8 nM.

In experiment [1], `CC(C)N1CCC(CCc2c[nH]cn2)CC1` gave an EC50 of 200 nM. This compound showed a Ki in experiment [2] of 100 nM.

Regarding `c1ccc(CN2CCC(CCc3c[nH]cn3)CC2)cc1`, the EC50 in experiment [1] is greater than 10000 nM. The Ki in experiment [2] is 79.4 nM.

Take `C(=C1CCN(Cc2ccccc2)CC1)c1c[nH]cn1`: the EC50 in experiment [1] is 79.4 nM. Also, in experiment [2], affinity was put at a Ki of 398 nM.

As for `CN1CCC(Cc2c[nH]cn2)CC1` [METHIMEPIP], the Ki in experiment [3] was greater than 10000 nM; in experiment [2], 1 nM; in experiment [5], 2000 nM; in experiment [6], greater than 10000 nM. In experiment [4], this compound gave a pD2 of 8.26. Also, the EC50 in experiment [1] was 0.316 nM.

With `CCN1CCC(=Cc2c[nH]cn2)CC1`, the EC50 in experiment [1] was 25.1 nM. The same compound showed a Ki in experiment [2] of 50.1 nM.

For `C(=C1CCN(CCc2ccccc2)CC1)c1c[nH]cn1`, in experiment [1], the midpoint of the response, the EC50, lay at 15.8 nM. The same compound gave a Ki in experiment [2] of 63.1 nM.

Take `c1nc(CC2CCNCC2)c[nH]1` [IMMEPIP]: the Ki is greater than 10000 nM in experiment [3], 0.501 nM in experiment [2] and 20 nM in experiment [5]. Moreover, in experiment [4], the pD2 was found to be 8.4.

With `c1ccc(CN2CCC(Cc3c[nH]cn3)CC2)cc1`, a half-maximal response in experiment [1] (EC50) required 15.8 nM. This compound also gave a Ki in experiment [2] of 50.1 nM.

Regarding `c1ccc(CCN2CCC(Cc3c[nH]cn3)CC2)cc1`, the EC50 in experiment [1] is 7.94 nM. Affinity in experiment [2] was put at a Ki of 10 nM.

Take `CC(C)N1CCC(Cc2c[nH]cn2)CC1`: in experiment [1], a half-maximal effect (EC50) was put at 7.94 nM. In experiment [2], this compound gave a Ki of 63.1 nM.

In turn, `c1nc(CC2CCN(C3CCCCC3)CC2)c[nH]1` showed an EC50 in experiment [1] of 3.98 nM. The compound further had a Ki in experiment [2] of 15.8 nM.

Consider `C(=C1CCN(C2CCCCC2)CC1)c1c[nH]cn1`, for which the EC50 in experiment [1] is 50.1 nM. This compound also gave a Ki in experiment [2] of 31.6 nM.
